Measured values from US7939537B2, “HIV integrase inhibitors” (Istituto Di Ricerche Di Biologia Molecolare P. Angeletti …, priority 2006, dated 2011).

Test system: HIV
Experiment: Assay for inhibition of HIV replication (spread assay; acute HIV infection of T-lymphoid cells)
Assay type: cell-based
Settings: Human immunodeficiency virus 1, tested up to 1 micromolar
Experimental: Assay for Inhibition of HIV Replication
Assays for the inhibition of acute HIV infection of T-lymphoid cells were conducted in accordance with Vacca, J. P. et al., Proc. Natl. Acad. Sci. USA 1994, 91: 4096. […] The compounds of Examples 6, 8, 9, 14, 15, 21-23 and 29-35 were also tested in the spread assay up to 1 micromolar, but specific IC95 values were not obtained; i.e., the IC95 values for these compounds are greater than 1 micromolar.

SMILES	IC95
CCN(C(=O)c1ccccn1)c1cccn2c(=O)c(O)c(C(=O)NCc3ccc(F)cc3)nc12 [Example 16, 9-[ethyl(pyridin-2-ylcarbonyl)amino]-N-(4-fluorobenzyl)-3-hydroxy-4-oxo-4H-pyrido[1,2-a]pyrimidine-2-carboxamide]	< 1000 nM
CCCN(C(=O)C(=O)N(C)C)c1cccn2c(=O)c(O)c(C(=O)NCc3ccc(F)cc3)nc12 [Example 17, N-(2-{[(4-fluorobenzyl)amino]carbonyl}-3-hydroxy-4-oxo-4H-pyrido[1,2-a]pyrimidin-9-yl)-N-propyl-N′,N′-dimethylethanediamide]	< 1000 nM
CC(C)CN(C(=O)C(=O)N(C)C)c1cccn2c(=O)c(O)c(C(=O)NCc3ccc(F)cc3)nc12 [Example 18, N-(2-{[(4-fluorobenzyl)amino]carbonyl}-3-hydroxy-4-oxo-4H-pyrido[1,2-a]pyrimidin-9-yl)-N-isobutyl-N′,N′-dimethylethanediamide]	< 1000 nM
CCN(C(=O)C(=O)N1CCOCC1)c1cccn2c(=O)c(O)c(C(=O)NCc3ccc(F)cc3)nc12 [Example 19, N-(4-fluorobenzyl)-3-hydroxy-9-{ethyl[morpholin-4-yl(oxo)acetyl]amino}-4-oxo-4H-pyrido[1,2-a]pyrimidine-2-carboxamide]	< 1000 nM
CCN(C(=O)CN(C)C)c1cccn2c(=O)c(O)c(C(=O)NCc3ccc(F)cc3)nc12 [Example 20, 9-[(N,N-dimethylglycyl)(ethyl)amino]-N-(4-fluorobenzyl)-3-hydroxy-4-oxo-4H-pyrido[1,2-a]pyrimidine-2-carboxamide]	< 1000 nM
CCN(CC)CC(=O)N(CC)c1cccn2c(=O)c(O)c(C(=O)NCc3ccc(F)cc3)nc12 [Example 21, 9-[(N,N-diethylglycyl)(ethyl)amino]-N-(4-fluorobenzyl)-3-hydroxy-4-oxo-4H-pyrido[1,2-a]pyrimidine-2-carboxamide]	> 1000 nM
CCN(C(=O)CN1CCOCC1)c1cccn2c(=O)c(O)c(C(=O)NCc3ccc(F)cc3)nc12 [Example 22, 9-[ethyl(morpholin-4-ylacetyl)amino]-N-(4-fluorobenzyl)-3-hydroxy-4-oxo-4H-pyrido[1,2-a]pyrimidine-2-carboxamide]	> 1000 nM
CCN(C(=O)CN1CCN(C)CC1)c1cccn2c(=O)c(O)c(C(=O)NCc3ccc(F)cc3)nc12 [Example 23, 9-{ethyl[(4-methylpiperazin-1-yl)acetyl]amino}-N-(4-fluorobenzyl)-3-hydroxy-4-oxo-4H-pyrido[1,2-a]pyrimidine-2-carboxamide]	> 1000 nM
CCN(C(=O)c1cscn1)c1cccn2c(=O)c(O)c(C(=O)NCc3ccc(F)cc3)nc12 [Example 24, 9-[ethyl(1,3-thiazol-4-ylcarbonyl)amino]-N-(4-fluorobenzyl)-3-hydroxy-4-oxo-4H-pyrido[1,2-a]pyrimidine-2-carboxamide]	< 1000 nM
CCN(C(=O)c1ccno1)c1cccn2c(=O)c(O)c(C(=O)NCc3ccc(F)cc3)nc12 [Example 25, 9-[ethyl(isoxazol-5-ylcarbonyl)amino]-N-(4-fluorobenzyl)-3-hydroxy-4-oxo-4H-pyrido[1,2-a]pyrimidine-2-carboxamide]	< 1000 nM
CCN(C(=O)c1nnc(C)o1)c1cccn2c(=O)c(O)c(C(=O)NCc3ccc(F)cc3)nc12 [Example 26, 9-{ethyl[(5-methyl-1,3,4-oxadiazol-2-yl)carbonyl]amino}-N-(4-fluorobenzyl)-3-hydroxy-4-oxo-4H-pyrido[1,2-a]pyrimidine-2-carboxamide]	< 1000 nM
CCN(C(=O)C(=O)N1CCCC1)c1cccn2c(=O)c(O)c(C(=O)NCc3ccc(F)cc3)nc12 [Example 27, 9-{ethyl[oxo(pyrrolidin-1-yl)acetyl]amino}-N-(4-fluorobenzyl)-3-hydroxy-4-oxo-4H-pyrido[1,2-a]pyrimidine-2-carboxamide]	< 1000 nM
CCN(C(=O)C(=O)N1CCN(C)CC1)c1cccn2c(=O)c(O)c(C(=O)NCc3ccc(F)cc3)nc12 [Example 28, 4-[[ethyl(2-{[(4-fluorobenzyl)amino]carbonyl}-3-hydroxy-4-oxo-4H-pyrido[1,2-a]pyrimidin-9-yl)amino](oxo)acetyl]-1-methylpiperazine]	< 1000 nM
Cc1cccn2c(=O)c(O)c(C(=O)NCc3ccc(F)cc3)nc12 [Example 29, N-(4-fluorobenzyl)-3-hydroxy-9-methyl-4-oxo-4H-pyrido[1,2-a]pyrimidine-2-carboxamide]	> 1000 nM
CN(C)Cc1cccn2c(=O)c(O)c(C(=O)NCc3ccc(F)cc3)nc12 [Example 30, 9-[(dimethylamino)methyl]-N-(4-fluorobenzyl)-3-hydroxy-4-oxo-4H-pyrido[1,2-a]pyrimidine-2-carboxamide]	> 1000 nM
CON(C)Cc1cccn2c(=O)c(O)c(C(=O)NCc3ccc(F)cc3)nc12 [Example 31, N-(4-fluorobenzyl)-3-hydroxy-9-{[methoxy(methyl)amino]methyl}-4-oxo-4H-pyrido[1,2-a]pyrimidine-2-carboxamide]	> 1000 nM
O=C(NCc1ccc(F)cc1)c1nc2c(CN3CCOCC3)cccn2c(=O)c1O [Example 32, N-(4-fluorobenzyl)-3-hydroxy-9-(morpholin-4-ylmethyl)-4-oxo-4H-pyrido[1,2-a]pyrimidine-2-carboxamide]	> 1000 nM
CC(=O)N1CCN(Cc2cccn3c(=O)c(O)c(C(=O)NCc4ccc(F)cc4)nc23)CC1 [Example 33, 9-[(4-acetylpiperazin-1-yl)methyl]-N-(4-fluorobenzyl)-3-hydroxy-4-oxo-4H-pyrido[1,2-a]pyrimidine-2-carboxamide]	> 1000 nM
O=C(NCc1cccn2c(=O)c(O)c(C(=O)NCc3ccc(F)cc3)nc12)c1ccccc1 [Example 34, 9-[(benzoylamino)methyl]-N-(4-fluorobenzyl)-3-hydroxy-4-oxo-4H-pyrido[1,2-a]pyrimidine-2-carboxamide]	> 1000 nM
O=C(NCc1ccc(F)cc1)c1nc2ccc(Br)cn2c(=O)c1O [Example 35, 7-bromo-N-(4-fluorobenzy1)-3-hydroxy-4-oxo-4H-pyrido[1,2-a]pyrimidine-2-carboxamide]	> 1000 nM
